According to ChEMBL document CHEMBL1138964, “Synthesis and efficacy of 1-[bis(4-fluorophenyl)-methyl]piperazine derivatives for acetylcholinesterase inhibition, as a stimulant of central cholinergic neurotransmission in Alzheimer's disease” (Bioorg Med Chem Lett, 2006):

Assays:
Acetylcholinesterase [1] = target: T1, Acetylcholinesterase (Rattus norvegicus, UniProt P37136); experiment: Inhibition of rat brain homogenate AchE
T1 sequence (P37136 whole entry): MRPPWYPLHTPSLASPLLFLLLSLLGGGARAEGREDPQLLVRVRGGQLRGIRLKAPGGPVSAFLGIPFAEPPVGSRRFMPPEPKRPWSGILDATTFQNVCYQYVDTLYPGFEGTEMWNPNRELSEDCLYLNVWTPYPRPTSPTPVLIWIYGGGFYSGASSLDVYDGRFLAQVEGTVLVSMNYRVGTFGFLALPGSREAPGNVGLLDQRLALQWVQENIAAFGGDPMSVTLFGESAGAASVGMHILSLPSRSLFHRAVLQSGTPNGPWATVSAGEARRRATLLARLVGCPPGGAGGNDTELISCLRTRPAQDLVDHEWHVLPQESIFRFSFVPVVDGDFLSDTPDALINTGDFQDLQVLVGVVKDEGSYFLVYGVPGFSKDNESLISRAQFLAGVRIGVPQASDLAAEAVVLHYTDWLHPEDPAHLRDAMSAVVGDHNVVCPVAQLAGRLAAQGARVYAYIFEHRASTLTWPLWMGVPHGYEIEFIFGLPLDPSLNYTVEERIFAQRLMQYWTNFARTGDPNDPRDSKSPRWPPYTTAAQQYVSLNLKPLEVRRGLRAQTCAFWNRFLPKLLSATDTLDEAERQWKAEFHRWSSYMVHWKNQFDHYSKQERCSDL

Acetylcholinesterase [2] = target: Acetylcholinesterase (Homo sapiens, UniProt P22303); experiment: Inhibition of human serum AchE
Acetylcholinesterase (Homo sapiens, UniProt P22303), sequence (P22303 whole entry): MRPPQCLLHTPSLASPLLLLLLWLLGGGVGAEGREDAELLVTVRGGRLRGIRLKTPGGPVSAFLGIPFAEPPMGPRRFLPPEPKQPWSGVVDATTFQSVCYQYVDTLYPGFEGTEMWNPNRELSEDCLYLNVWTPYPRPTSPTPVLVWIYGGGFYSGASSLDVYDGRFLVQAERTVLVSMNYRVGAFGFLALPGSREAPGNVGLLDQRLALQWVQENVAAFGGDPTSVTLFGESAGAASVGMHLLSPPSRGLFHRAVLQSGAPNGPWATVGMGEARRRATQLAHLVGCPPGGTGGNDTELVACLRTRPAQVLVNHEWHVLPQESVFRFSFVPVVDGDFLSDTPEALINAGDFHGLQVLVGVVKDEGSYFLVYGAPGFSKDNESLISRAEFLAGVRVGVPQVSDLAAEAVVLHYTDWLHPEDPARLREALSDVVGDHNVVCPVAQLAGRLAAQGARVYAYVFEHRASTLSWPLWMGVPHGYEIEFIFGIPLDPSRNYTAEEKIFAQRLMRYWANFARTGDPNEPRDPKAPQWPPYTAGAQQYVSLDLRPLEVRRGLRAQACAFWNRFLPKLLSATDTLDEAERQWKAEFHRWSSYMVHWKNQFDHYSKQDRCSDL

Acetylcholinesterase [3] = target: Acetylcholinesterase (Electrophorus electricus, UniProt O42275); experiment: Inhibition of electric eel AchE
Acetylcholinesterase (Electrophorus electricus, UniProt O42275), sequence (O42275 whole entry): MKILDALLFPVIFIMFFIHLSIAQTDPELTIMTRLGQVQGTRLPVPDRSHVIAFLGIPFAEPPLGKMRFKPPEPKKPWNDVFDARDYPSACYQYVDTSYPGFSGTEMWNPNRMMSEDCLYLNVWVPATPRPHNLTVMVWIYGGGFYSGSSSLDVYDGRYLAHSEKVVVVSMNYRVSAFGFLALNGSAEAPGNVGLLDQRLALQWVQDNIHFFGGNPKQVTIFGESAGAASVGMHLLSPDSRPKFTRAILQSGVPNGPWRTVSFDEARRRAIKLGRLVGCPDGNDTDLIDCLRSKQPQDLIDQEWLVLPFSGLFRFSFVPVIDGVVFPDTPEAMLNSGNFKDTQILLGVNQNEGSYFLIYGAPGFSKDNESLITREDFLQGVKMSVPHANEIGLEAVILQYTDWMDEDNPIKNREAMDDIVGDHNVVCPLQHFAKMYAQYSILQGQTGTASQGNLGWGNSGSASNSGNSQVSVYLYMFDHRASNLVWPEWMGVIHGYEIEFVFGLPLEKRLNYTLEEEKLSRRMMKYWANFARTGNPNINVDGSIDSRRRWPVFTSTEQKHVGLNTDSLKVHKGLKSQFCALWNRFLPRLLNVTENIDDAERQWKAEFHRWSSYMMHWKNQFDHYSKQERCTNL

Rattus norvegicus [4] = experiment: Antiamnesic effect against scopolamine-induced memory loss in passive avoidance step-down task paradigm in rat assessed as number of mistakes at 0.1 mg/kg, ip; type: functional; conditions: route intraperitoneal
Rattus norvegicus [5] = experiment: Antiamnesic effect in passive avoidance step-down task paradigm in rat assessed as number of mistakes at 0.4 mg/kg, ip; type: functional; conditions: route intraperitoneal

Row | Compound | IC50 (Acetylcholinesterase [1]; read-out: IC50) [µM] | IC50 (Acetylcholinesterase [2]) [µM] | IC50 (Acetylcholinesterase [3]) [µM] | Activity (Rattus norvegicus [4]) | IC50 (Acetylcholinesterase [1]) | Activity (Rattus norvegicus [5])
1 | N#Cc1ccccc1-c1ccc(CN2CCN(C(c3ccc(F)cc3)c3ccc(F)cc3)CC2)cc1 | 0.0375 | 0.0736 | 0.0705 | 11 | – | –
2 | Cc1nc2ccccn2c(=O)c1CCN1CCN(C(c2ccc(F)cc2)c2ccc(F)cc2)CC1 | – | 3.2 | 2.13 | 32 | Not Active | –
3 | COc1cc(Br)c(CN2CCN(C(c3ccc(F)cc3)c3ccc(F)cc3)CC2)cc1OC | – | 1.01 | 0.715 | 34 | Not Active | –
4 | Fc1ccc(C(c2ccc(F)cc2)N2CCN(CCN3CCCCC3)CC2)cc1 | 0.0937 | 0.126 | 0.135 | 12 | – | –
5 | CC1=C(CCN2CCN(C(c3ccc(F)cc3)c3ccc(F)cc3)CC2)C(=O)C2CCCCC2=N1 (stereo not given) | – | 1.07 | 1.21 | 34 | Not Active | –
6 | Cc1cc2c(cc1CN1CCN(C(c3ccc(F)cc3)c3ccc(F)cc3)CC1)OCO2 | – | 1.34 | 1.14 | 33 | Not Active | –
7 | Fc1ccc(C(c2ccc(F)cc2)N2CCN(CCN3CCOCC3)CC2)cc1 | 0.2 | 0.284 | 0.253 | 16 | – | –
8 | Fc1ccc(C(c2ccc(F)cc2)N2CCN(CCN3CCCC3)CC2)cc1 | 0.0187 | 0.021 | 0.0176 | 10 | – | –
9 | CN(C)C(=O)Oc1cccc([N+](C)(C)C)c1 [NEOSTIGMINE METHYLSULFATE] | 0.0375 | – | 41.1 | – | – | –
10 | CN1[C@@H]2C[C@@H](OC(=O)[C@H](CO)c3ccccc3)C[C@H]1[C@@H]1O[C@@H]12 [SCOPOLAMINE] | – | – | – | – | – | 35
